Assay results as given in patent US20260335495A1, “SYNERGISTIC ACTIVITY OF NOVEL COMPOUNDS AGAINST PLANKTONIC AND BIOFILM CELLS OF CLINICALLY RELEVANT PATHOGENS” (priority 2021, published 2026).

What was measured:
MRSA ON184 [1] = assay: MBC/MFC and FMCI, planktonic cells; type: cell-based, methicillin-resistant S. aureus; conditions: for MBC/MFC: alone
Description: (§1) The MIC was determined by the micro broth dilution method in 96-well plates. […] A 10 μL containing 1×10^5 bacterial cells or 2×10^3 fungal cells were added to each well. The inoculated plates were covered with a lid, sealed with Parafilm, and incubated for 24 h at 37 °C with slight rocking on a tilting platform shaker. After incubation, the optical density at 600 nm (OD 600) of the cultures in each well was measured using an xMark™ Microplate Absorbance Spectrophotometer (Bio-Rad). The MIC was defined as the lowest concentration of antimicrobial compound at which the culture OD600 values was similar to uninoculated control wells. MBCs and MFCs were determined by transferring 100 μL from each well with no apparent growth onto appropriate agar plates, followed by incubation for 24 h at 37 °C.
(§2) The concentrations of antimicrobials used were based on previously determined MIC values. […] Microtiter plates were incubated at 37 °C for 24 h, and the results were analyzed. Each test was performed in duplicate and included a growth control without the addition of any antimicrobials.

Proteus mirabilis ON153 [2] = assay: MBC/MFC and FMCI, planktonic cells; type: cell-based; conditions: for MBC/MFC: alone
Description: as §1, §2

E. coli SK2 = assay: MBC/MFC and FMCI, planktonic cells; type: cell-based; conditions: for MBC/MFC: alone
Description: as §1, §2

Serratia marcescens SK2 = assay: MBC/MFC and FMCI, planktonic cells; type: cell-based; conditions: for MBC/MFC: alone
Description: as §1, §2

[3] = system: Staphylococcus epidermidis ON170; assay: MBC/MFC and FMCI, planktonic cells; type: cell-based; conditions: for MBC/MFC: alone
Description: as §1, §2

[4] = system: Staphylococcus aureus ON89; assay: MBC/MFC and FMCI, planktonic cells; type: cell-based; conditions: for MBC/MFC: alone
Description: as §1, §2

Escherichia coli ON29 [5] = assay: MBC/MFC and FMCI, planktonic cells; type: cell-based; conditions: for MBC/MFC: alone
Description: as §1, §2

S. epidermidis SK9 [6] = assay: MBC/MFC and FMCI, planktonic cells; type: cell-based; conditions: for MBC/MFC: alone
Description: as §1, §2

12 test organisms = assay: MBC/MFC and FMCI, planktonic cells, summary over strains; type: cell-based, bacterial and fungal organisms
Description: as §1, §2

MRSA ON184 [7] = assay: MIC and checkerboard (FICI), planktonic cells; type: cell-based, methicillin-resistant S. aureus; conditions: for MIC: alone, 24 h, 37 °C
Description: as §1, §2

[8] = system: preformed biofilms of test pathogens; assay: MBEC and FBEC index, 48 h old biofilms, summary over strains; type: cell-based, bacterial and fungal strains; conditions: alone: 4% tetrasodium EDTA, 50% ethanol, 100 μg/mL chlorhexidine HCl, 24 hours
Description: The evaluation of the biofilm cultivation cell composition was evaluated using an MBEC Assay® biofilm inoculator, consisting of a polystyrene lid with 96 downward-protruding pegs and a corresponding base used to grow biofilms. A standardized inoculum was diluted in an appropriate biofilm growth medium to achieve a viable cell count of 1.5×10^6 CFU/mL of bacterial cells or 5×10^5 CFU/mL of fungal cells. Then, 150 μL of this inoculum was transferred into each appropriate well, and the peg lids were inserted into the microtiter plates. The plates were sealed with Parafilm and were incubated at optimum temperature for 48 h with slight rocking for bacteria and shaking at 200 rpm for fungal strains. After incubation, the peg lid was removed from the base and rinsed twice with sterile phosphate-buffered saline (PBS) for 2 min to remove loosely attached non-sessile cells. Before the antimicrobial challenge, the pegs in column 1 (n=8) were considered as the biofilm growth control; these pegs were removed from the lids, placed into 200 μL of recovery medium, and analyzed for starting biofilm cell numbers as described below. […] After the antimicrobial challenge, the pegs were rinsed twice with sterile PBS for 2 min and placed into a new 96-well plate containing 200 μL of recovery medium. The recovery plates were sealed with Parafilm, and biofilm cells were dislodged from the pegs by sonication for 30 min with a Branson 3510 bath sonicator. The biofilm cells in the recovery medium were serially diluted, and a drop dilution assay was performed to enumerate the viable cells.
In step (4), microtiter plates are incubated at 37 °C for 24 h. then (6), after incubation, the bacterial and fungal cells were dislodged from the pegs into the recovery medium described above.
Three 10-μL aliquots, for a total of 30 μL from each well of recovery medium, were spotted on MH agar plates and incubated for 24 hours at 37 °C. […] The FBEC determination is a modification of the FICI. […]

[9] = system: bacterial and fungal biofilms; assay: Rapid eradication of 48-h-old biofilms within 2 h exposure; type: cell-based, bacterial and fungal strains; conditions: at the MBEC alone, 48-h-old biofilm
Description: This example comprises performing biofilm growth as described above. After biofilm formation, control pegs (n=6) were removed and analyzed to determine the starting biofilm cell numbers via the drop dilution method. The 48-h old biofilms on the pegs were exposed to different concentrations of test antimicrobials, dissolved in an appropriate growth medium, for 2 hours to evaluate their efficacy alone and in combination. […] Following treatment, pegs were washed twice with sterile PBS, and the biofilm cells were dislodged into recovery medium and enumerated as described above.

Proteus mirabilis ON153 [10] = assay: MIC and checkerboard (FICI), planktonic cells; type: cell-based; conditions: for MIC: alone, 24 h, 37 °C
Description: as §1, §2

[11] = system: Stenotrophomonas maltophilia ON17; assay: MIC and checkerboard (FICI), planktonic cells; type: cell-based; conditions: for MIC: alone, 24 h, 37 °C
Description: as §1, §2

Candida albicans SK4b = assay: MIC and checkerboard (FICI), planktonic cells; type: cell-based; conditions: for MIC: alone, 24 h, 37 °C
Description: as §1, §2

[12] = system: Staphylococcus aureus ON89; assay: MIC and checkerboard (FICI), planktonic cells; type: cell-based; conditions: for MIC: alone, 24 h, 37 °C
Description: as §1, §2

C. albicans ON47 = assay: MIC and checkerboard (FICI), planktonic cells; type: cell-based; conditions: for MIC: alone, 24 h, 37 °C
Description: as §1, §2

Escherichia coli ON29 [13] = assay: MIC and checkerboard (FICI), planktonic cells; type: cell-based; conditions: for MIC: alone, 24 h, 37 °C
Description: as §1, §2

S. epidermidis SK9 [14] = assay: MIC and checkerboard (FICI), planktonic cells; type: cell-based; conditions: for MIC: alone, 24 h, 37 °C
Description: as §1, §2

CCO [ET, ethanol]
MBC/MFC in combination (MRSA ON184 [1]; TE + ET in combination): 3.125%
MBC/MFC (MRSA ON184 [1]): 25%
MBC/MFC in combination (Proteus mirabilis ON153 [2]; TE + ET in combination): 6.25%
MBC/MFC (Proteus mirabilis ON153 [2]): 12.5%
MBC/MFC in combination (E. coli SK2; TE + ET in combination): 6.25%
MBC/MFC (E. coli SK2): 25%
MBC/MFC in combination (Serratia marcescens SK2; TE + ET in combination): 6.25%
MBC/MFC (Serratia marcescens SK2): 12.5%
MBC/MFC in combination ([3]; TE + ET in combination): 1.6%
MBC/MFC [3]: 6.25%
MBC/MFC in combination ([4]; TE + ET in combination): 3.125%
MBC/MFC [4]: 25%
MBC/MFC in combination (Escherichia coli ON29 [5]; TE + ET in combination): 6.25%
MBC/MFC (Escherichia coli ON29 [5]): 25%
MBC/MFC in combination (S. epidermidis SK9 [6]; TE + ET in combination): 3.125%
MBC/MFC (S. epidermidis SK9 [6]): 12.5%
microbicidal activity (12 test organisms): broad-spectrum microbicidal activity
MIC in combination (MRSA ON184 [7]; TE + ET in combination): 0.4%
MIC (MRSA ON184 [7]): 6.25%
eradication of all established biofilms [8]: able to eradicate all established biofilms
biofilm eradication [9]: failed to eradicate the preformed biofilms
MIC in combination (Proteus mirabilis ON153 [10]; TE + ET in combination): 1.6%
MIC (Proteus mirabilis ON153 [10]): 6.25%
MIC in combination ([11]; TE + ET in combination): 0.4%
MIC [11]: 6.25%
MIC in combination (Candida albicans SK4b; TE + ET in combination): 1.6%
MIC (Candida albicans SK4b): 6.25%
MIC in combination ([12]; TE + ET in combination): 0.4%
MIC [12]: 6.25%
MIC in combination (C. albicans ON47; TE + ET in combination): 0.4%
MIC (C. albicans ON47): 6.25%
MIC in combination (Escherichia coli ON29 [13]; TE + ET in combination): 3.125%
MIC (Escherichia coli ON29 [13]): 12.5%
MIC in combination (S. epidermidis SK9 [14]; TE + ET in combination): 0.4%
MIC (S. epidermidis SK9 [14]): 6.25%

O=C(O)CN(CCN(CC(=O)O)CC(=O)O)CC(=O)O.[Na].[Na].[Na].[Na] [TE, tetrasodium ethylenediaminetetraacetic acid]
MBC/MFC in combination (MRSA ON184 [1]; TE + CH in combination): 0.125%
MBC/MFC in combination (MRSA ON184 [1]; TE + ET in combination): 0.031%
MBC/MFC (MRSA ON184 [1]): 2%
MBC/MFC in combination (Proteus mirabilis ON153 [2]; TE + CH in combination): 0.125%
MBC/MFC in combination (Proteus mirabilis ON153 [2]; TE + ET in combination): 0.063%
MBC/MFC (Proteus mirabilis ON153 [2]): 2%
MBC/MFC in combination (E. coli SK2; TE + CH in combination): 0.015%
MBC/MFC in combination (E. coli SK2; TE + ET in combination): 0.25%
MBC/MFC (E. coli SK2): 0.5%
MBC/MFC in combination (Serratia marcescens SK2; TE + CH in combination): 0.125%
MBC/MFC in combination (Serratia marcescens SK2; TE + ET in combination): 0.25%
MBC/MFC (Serratia marcescens SK2): 2%
MBC/MFC in combination ([3]; TE + CH in combination): 0.25%
MBC/MFC in combination ([3]; TE + ET in combination): 0.031%
MBC/MFC [3]: 0.5%
MBC/MFC in combination ([4]; TE + CH in combination): 0.008%
MBC/MFC in combination ([4]; TE + ET in combination): 0.25%
MBC/MFC [4]: 1%
MBC/MFC in combination (Escherichia coli ON29 [5]; TE + CH in combination): 0.008%
MBC/MFC in combination (Escherichia coli ON29 [5]; TE + ET in combination): 0.25%
MBC/MFC (Escherichia coli ON29 [5]): 1%
MBC/MFC in combination (S. epidermidis SK9 [6]; TE + CH in combination): 0.008%
MBC/MFC in combination (S. epidermidis SK9 [6]; TE + ET in combination): 0.031%
MBC/MFC (S. epidermidis SK9 [6]): 0.5%
microbicidal activity (12 test organisms): broad-spectrum microbicidal activity
MIC in combination (MRSA ON184 [7]; TE + CH in combination): 0.008%
MIC in combination (MRSA ON184 [7]; TE + ET in combination): 0.015%
MIC (MRSA ON184 [7]): 0.063%
eradication of all established biofilms [8]: able to eradicate all established biofilms
biofilm eradication [9]: failed to eradicate the preformed biofilms
MIC in combination (Proteus mirabilis ON153 [10]; TE + CH in combination): 0.063%
MIC in combination (Proteus mirabilis ON153 [10]; TE + ET in combination): 0.5%
MIC (Proteus mirabilis ON153 [10]): 1%
MIC in combination ([11]; TE + CH in combination): 0.015%
MIC in combination ([11]; TE + ET in combination): 0.031%
MIC [11]: 0.063%
MIC in combination (Candida albicans SK4b; TE + CH in combination): 0.063%
MIC in combination (Candida albicans SK4b; TE + ET in combination): 0.25%
MIC (Candida albicans SK4b): 1%
MIC in combination ([12]; TE + CH in combination): 0.008%
MIC in combination ([12]; TE + ET in combination): 0.015%
MIC [12]: 0.063%
MIC in combination (C. albicans ON47; TE + CH in combination): 0.125%
MIC in combination (C. albicans ON47; TE + ET in combination): 0.25%
MIC (C. albicans ON47): 1%
MIC in combination (Escherichia coli ON29 [13]; TE + CH in combination): 0.008%
MIC in combination (Escherichia coli ON29 [13]; TE + ET in combination): 0.25%
MIC (Escherichia coli ON29 [13]): 0.5%
MIC in combination (S. epidermidis SK9 [14]; TE + CH in combination): 0.015%
MIC in combination (S. epidermidis SK9 [14]; TE + ET in combination): 0.015%
MIC (S. epidermidis SK9 [14]): 0.063%
